# Measurements as given in patent publication US20210008177A1 (priority 2019, published 2021).
# Entries after “also recorded” stand apart in the source; their conditions may differ. Read-outs that look alike come from different tables or passages of the source.
# B1: Cobrotoxin of amino acid sequence ID No.1 (protein)
# chain: LECHNQQSSQTPTTTGCSGGETNCYKKRWRDHRGYRTERGCGCPSVKNGIEINCCTTDRCNN
# modifications: Naja atra or Naja kaouthia
# B2: Cobrotoxin of amino acid sequence ID No.2: mktllltllv vtivcldlgy tlechnqqss qtptttgcsg getncykkrw rdhrgyrter gcgcpsvkng ieinccttdr cnn (protein)
# chain: MKTLLLTLLVVTIVCLDLGYTLECHNQQSSQTPTTTGCSGGETNCYKKRWRDHRGYRTERGCGCPSVKNGIEINCCTTDRCNN
# modifications: Naja atra or Naja kaouthia
# notes: mktllltllv vtivcldlgy tlechnqqss qtptttgcsg getncykkrw rdhrgyrter gcgcpsvkng ieinccttdr cnn
# Legend:
# [1] = system: Kunming mice; assay type: in vivo; details: for average pain threshold before injection, difference between physiological saline, cobrotoxin and cobrotoxin+morphine groups: day 5 through day 11
# Text: 100 Kunming mice were subjected to tail pressure tests for 4 days to measure the mechanical pain threshold and the average pain threshold will be set as the baseline pain threshold. • i. Put the mouse gently into the restraint and put its tail under the conical tip of the pain test apparatus. Press the pedal switch, and increase the pressure on the proximal end of the tail evenly until signs of the first pain response (struggle, squeaking) occurs. Record pain-inducing pressure when pain response occurs (units: g) as the value of pain threshold. The pressure was released upon reaching 700 g with no indication of a response to avoid tissue injury. Measurements were also conducted at the middle and distal ends of the tail of the same mouse with a minimum of 30 seconds time intervals between each measurement. • ii. Put the tested mice in a cage and test the next one until every mouse in the group is tested. The average of the three measurements (i.e., the proximal, mid and distal ends of each mouse tail) was used as the pain threshold (g) of each mouse when all mice were subjected to a tail pressure test. • iii. In the following 3 days, all mice underwent repeated measurements of tail pressure pain threshold. • iv. […] The mice were then randomly divided into four groups: namely ‘physiological saline group’, ‘morphine group’, ‘cobrotoxin group’ and ‘cobrotoxin+morphine group’. Each group comprised of 20 mice, which is used for the hyperalgesia and tolerance test of the corresponding drugs in the group's name. Any surplus mice were excluded. • v. Lastly, each group of 20 mice was divided randomly again into two groups, with each group comprising 10 mice, as cobrotoxin of amino acid sequence ID NO.1, and cobrotoxin of amino acid sequence ID NO. 2 will be used for parallel testing
# After 4 days of measurement of the mice's baseline pain threshold described in step 1, from the fifth day to the eleventh day, the measurement of pain threshold was performed before the injection. […]
# [2] = system: Kunming mice; details: mouse, in vivo
# Text: To evaluate the therapeutic effects elapidea neurotoxins, one of the reliable morphine induced hyperalgesia/tolerance model in mice (Elhabazi, K et al) was created, and effects of the representative EXAMPLE compounds were investigated on the model.
# 100 Kunming mice were subjected to tail pressure tests for 4 days to measure the mechanical pain threshold and the average pain threshold will be set as the baseline pain threshold. • i. Put the mouse gently into the restraint and put its tail under the conical tip of the pain test apparatus. Press the pedal switch, and increase the pressure on the proximal end of the tail evenly until signs of the first pain response (struggle, squeaking) occurs. Record pain-inducing pressure when pain response occurs (units: g) as the value of pain threshold. The pressure was released upon reaching 700 g with no indication of a response to avoid tissue injury. Measurements were also conducted at the middle and distal ends of the tail of the same mouse with a minimum of 30 seconds time intervals between each measurement. • ii. Put the tested mice in a cage and test the next one until every mouse in the group is tested. […] The pain threshold of the mice measured by the tail pressure test ranged from 180 g to 220 g. […]
# [3] = system: SD rats; details: rat, in vivo
# Experimental: Writhing test was applied to the rats, which is a chemical method used to induce pain of the peripheral origin by injection of irritant principles like acetic acid in rats. Analgesic effect of the test compound is inferred from the decrease in the frequency of writhe.
# The aforementioned four groups of rats were injected with sterile saline (NaCl 0.9% 1 ml), morphine (3 mg/kg), cobrotoxin (50 ug/kg), and cobrotoxin (25 ug/kg)+morphine (1.5 mg/kg) respectively.
# Following Step1, the aforementioned four groups SD rats were injected with 1.5% acetic acid solution (1 ml/rat) again 150 and 210 minutes after the initial injection of 4 different drugs respectively.
# [4] = system: NO; test: NO content in lumbar spinal cord tissue of mice after tolerance and hyperalgesia tests; details: lumbar spinal cord homogenate of mice after 7 days of injections, cobrotoxin of sequence ID NO.1, SD in own column
# [5] = system: IL-6; test: IL-6 in lumbar spinal cord tissue of mice after tolerance and hyperalgesia tests (ELISA); details: lumbar spinal cord homogenate of mice after 7 days of injections, cobrotoxin of sequence ID NO.1, SD in own column
# [6] = system: NOS; test: NOS activity in lumbar spinal cord tissue of mice after tolerance and hyperalgesia tests; details: lumbar spinal cord homogenate of mice after 7 days of injections, cobrotoxin of sequence ID NO.1, SD in own column
# [7] = system: IL-1β; test: IL-1β in lumbar spinal cord tissue of mice after tolerance and hyperalgesia tests (ELISA); details: lumbar spinal cord homogenate of mice after 7 days of injections, cobrotoxin of sequence ID NO.1, SD in own column
molecule,measurement,setting,value
CN1CC[C@]23c4c5ccc(O)c4O[C@H]2[C@@H](O)C=C[C@H]3[C@H]1C5 [morphine],mean pain threshold before injection (hyperalgesia),"[1]; mouse, in vivo",significantly lower
same,"average pain threshold one hour after injection, difference within the group between day five, eight and eleven",[2],significant statistical difference
same,"mean pain threshold one hour after injection, course within the group (tolerance)",[2],significantly decreased from day 5 to day 11
same,analgesic effect in writhing test,[3],lower analgesic effect; also recorded: almost no signs of any analgesic effect
same,"number of writhing, difference within the group between 60, 150 and 210 minutes",[3],significant statistical difference
same,NO,[4],significantly higher
same,NO,[4]; listed as Morphine,1.61 μmol/g protein
same,IL-6,[5],significantly higher
same,IL-6,[5]; listed as Morphine,19.40 pg/mg protein
same,NOS,[6],significantly higher
same,NOS,[6]; listed as Morphine,7.56 U/mg protein
same,IL-1β,[7],significantly higher
same,IL-1β,[7]; listed as Morphine,16.80 pg/mg protein
B1,"average pain threshold before injection, difference between physiological saline, cobrotoxin and cobrotoxin+morphine groups","[1]; FIG. 3, cobrotoxin of sequence ID No.1",No significant statistical differences
B2,"average pain threshold before injection, difference between physiological saline, cobrotoxin and cobrotoxin+morphine groups","[1]; FIG. 4, cobrotoxin of sequence ID No.2",No significant statistical differences
